Data reported in PubChem BioAssay AID330 (DTP/NCI, 2004).
Where “and” joins values, the source holds several entries; their conditions need not be identical. Identical values can stand only once. Inconclusive results and toxic doses are left out. How the source made its calls: active means survival T/C of 150% or more; inactive means T/C below 125% in these data.

Test system: P388 leukemia ip, CD2F1 mice, survival T/C
Assay: NCI In Vivo Anticancer Drug Screen. Data for tumor model P388 Leukemia (intraperitoneal) in CD2F1 (CDF1) mice
Conditions: endpoint: median survival time, higher = longer survival
How it was run: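 Mice carrying the transplanted tumor received test compound or vehicle. Survival was recorded in each group, and the value is the treated-group measurement divided by that of the vehicle-treated control group.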

[1] = dose: 60.0 mg/kg/injection, schedule: Q01DX005 (ip), vehicle: saline with Tween-80
[2] = dose: 120.0 mg/kg/injection, schedule: Q01DX005 (ip), vehicle: saline with Tween-80
[3] = dose: 240.0 mg/kg/injection, schedule: Q01DX005 (ip), vehicle: saline with Tween-80
[4] = dose: 50.0 mg/kg/injection, schedule: Q04DX003 (ip), vehicle: saline
[5] = dose: 100.0 mg/kg/injection, schedule: Q04DX003 (ip), vehicle: saline
[6] = dose: 200.0 mg/kg/injection, schedule: Q04DX003 (ip), vehicle: saline
[7] = dose: 400.0 mg/kg/injection, schedule: Q04DX003 (ip), vehicle: saline
[8] = dose: 50.0 mg/kg/injection, schedule: Q01DX005 (ip), vehicle: Klucel (hydroxypropylcellulose) (HPC)
[9] = dose: 100.0 mg/kg/injection, schedule: Q01DX005 (ip), vehicle: Klucel (hydroxypropylcellulose) (HPC)
[10] = dose: 200.0 mg/kg/injection, schedule: Q01DX005 (ip), vehicle: Klucel (hydroxypropylcellulose) (HPC)
[11] = dose: 50.0 mg/kg/injection, schedule: Q01DX009 (ip), vehicle: Klucel (hydroxypropylcellulose) (HPC)
[12] = dose: 100.0 mg/kg/injection, schedule: Q01DX009 (ip), vehicle: Klucel (hydroxypropylcellulose) (HPC)
[13] = dose: 200.0 mg/kg/injection, schedule: Q01DX009 (ip), vehicle: Klucel (hydroxypropylcellulose) (HPC)
[14] = dose: 50.0 mg/kg/injection, schedule: Q01DX009 (ip), vehicle: saline with Tween-80
[15] = dose: 100.0 mg/kg/injection, schedule: Q01DX009 (ip), vehicle: saline with Tween-80
[16] = dose: 100.0 mg/kg/injection, schedule: Q04DX003 (ip), vehicle: saline with Tween-80
[17] = dose: 200.0 mg/kg/injection, schedule: Q01DX009 (ip), vehicle: saline with Tween-80
[18] = dose: 200.0 mg/kg/injection, schedule: Q04DX003 (ip), vehicle: saline with Tween-80
[19] = dose: 25.0 mg/kg/injection, schedule: Q01DX005 (ip), vehicle: Klucel (hydroxypropylcellulose) (HPC)
[20] = dose: 50.0 mg/kg/injection, schedule: Q01DX005 (ip), vehicle: saline with Tween-80
[21] = dose: 400.0 mg/kg/injection, schedule: Q04DX003 (ip), vehicle: saline with Tween-80
[22] = dose: 100.0 mg/kg/injection, schedule: Q01DX009 (ip), vehicle: saline
[23] = dose: 12.5 mg/kg/injection, schedule: Q01DX005 (ip), vehicle: saline
[24] = dose: 25.0 mg/kg/injection, schedule: Q01DX005 (ip), vehicle: saline
[25] = dose: 50.0 mg/kg/injection, schedule: Q01DX005 (ip), vehicle: saline

Measured: T/C

CCCCCCCn1cnc2cc(N3CCOCC3)c([N+](=O)[O-])cc2c1=O
inactive: dose: 100.0 mg/kg/injection, schedule: Q04DX003 (ip), vehicle: Klucel (hydroxypropylcellulose) (HPC) 102 % of control | dose: 200.0 mg/kg/injection, schedule: Q04DX003 (ip), vehicle: Klucel (hydroxypropylcellulose) (HPC) 95 % of control | dose: 400.0 mg/kg/injection, schedule: Q04DX003 (ip), vehicle: Klucel (hydroxypropylcellulose) (HPC) 100 % of control

COc1ccnc(-c2cc(OC)cc(/C(N)=N/O)n2)c1
inactive: [1] 100 % of control | [2] 105 % of control | [3] 100 % of control

CCc1ccc2c(c1)N(CCCN(CCCl)CCCl)c1ccccc1S2
inactive: dose: 0.78 mg/kg/injection, schedule: Q01DX009 (ip), vehicle: saline with Tween-80 106 % of control | dose: 1.56 mg/kg/injection, schedule: Q01DX009 (ip), vehicle: saline with Tween-80 101 % of control and 115 % of control

CS(=O)(=O)Oc1ccc2c(c1)CCC2
inactive: [4] 99 % of control | [5] 101 % of control | [6] 108 % of control | [7] 102 % of control

CC/C(Cc1ccc(OC)cc1)=C(/CC)c1ccc(OC)cc1
inactive: [8] 98 % of control | [9] 92 % of control | [10] 102 % of control

CCOC(=O)[C@H]1C(CC)=NOC1C (stereo partly specified)
inactive: [1] 102 % of control | [2] 102 % of control | [3] 101 % of control

COC(=O)c1ccc(-c2ccccc2)cc1
inactive: dose: 25.0 mg/kg/injection, schedule: Q01DX009 (ip), vehicle: Klucel (hydroxypropylcellulose) (HPC) 89 % of control | [11] 89 % of control | [12] 90 % of control | [13] 86 % of control

CCOC(=O)c1cn(C2OC(CO)C(O)C2O)c(=O)nc1N (stereo unspecified)
inactive: [4] 99 % of control | [5] 100 % of control | [6] 100 % of control | [7] 102 % of control

CC(=O)Nc1ccccc1C(C)=O
inactive: [14] 91 % of control | dose: 50.0 mg/kg/injection, schedule: Q04DX003 (ip), vehicle: saline with Tween-80 95 % of control | [15] 95 % of control | [16] 100 % of control | [17] 100 % of control | [18] 100 % of control

COc1ccc(NS(=O)(=O)c2ccc(NC(=O)NCCCl)cc2)nn1
inactive: [19] 98 % of control | [8] 98 % of control | [10] 98 % of control

O=C1CCCC2C3CCCN4CCCC(CN12)C34 (stereo unspecified)
inactive: dose: 3.12 mg/kg/injection, schedule: Q01DX007 (ip), vehicle: carboxymethylcellulose (CMC) 100 % of control | dose: 5.0 mg/kg/injection, schedule: Q01DX009 (ip), vehicle: saline 98 % of control | dose: 6.2 mg/kg/injection, schedule: Q01DX007 (ip), vehicle: carboxymethylcellulose (CMC) 100 % of control | dose: 6.25 mg/kg/injection, schedule: Q01DX007 (ip), vehicle: carboxymethylcellulose (CMC) 100 % of control | dose: 10.0 mg/kg/injection, schedule: Q01DX009 (ip), vehicle: saline 100 % of control and 94 % of control | dose: 12.5 mg/kg/injection, schedule: Q01DX007 (ip), vehicle: carboxymethylcellulose (CMC) 91 % of control | dose: 20.0 mg/kg/injection, schedule: Q01DX009 (ip), vehicle: saline 100 % of control and 110 % of control and 95 % of control | dose: 23.0 mg/kg/injection, schedule: Q01DX007 (ip), vehicle: carboxymethylcellulose (CMC) 100 % of control | dose: 25.0 mg/kg/injection, schedule: Q01DX007 (ip), vehicle: carboxymethylcellulose (CMC) 91 % of control | dose: 40.0 mg/kg/injection, schedule: Q01DX009 (ip), vehicle: saline 102 % of control and 117 % of control and 95 % of control | dose: 80.0 mg/kg/injection, schedule: Q01DX009 (ip), vehicle: saline 98 % of control and 110 % of control and 122 % of control | dose: 160.0 mg/kg/injection, schedule: Q01DX009 (ip), vehicle: saline 102 % of control and 119 % of control

COc1ccc(CN2CCCN(Cc3ccc(OC)cc3)P2(=O)Nc2ccc(OC)cc2)cc1
inactive: [20] 97 % of control | dose: 100.0 mg/kg/injection, schedule: Q01DX005 (ip), vehicle: saline with Tween-80 100 % of control | dose: 200.0 mg/kg/injection, schedule: Q01DX005 (ip), vehicle: saline with Tween-80 100 % of control

COc1cc(/C=N\Nc2ccccc2[N+](=O)[O-])cc(OC)c1OC
inactive: [16] 87 % of control | [18] 87 % of control | [21] 91 % of control

CC(C)=CCCC(=O)C(c1nc2n(c1O)C(=N)N=N2)c1nc2n(c1O)C(=N)N=N2 (stereo unspecified)
inactive: dose: 60.0 mg/kg/injection, schedule: Q01DX005 (ip), vehicle: saline 95 % of control | dose: 120.0 mg/kg/injection, schedule: Q01DX005 (ip), vehicle: saline 97 % of control | dose: 240.0 mg/kg/injection, schedule: Q01DX005 (ip), vehicle: saline 97 % of control

O=S=C(c1ccccc1)N1CCc2ccccc21
inactive: dose: 25.0 mg/kg/injection, schedule: Q01DX009 (ip), vehicle: saline 97 % of control | dose: 50.0 mg/kg/injection, schedule: Q01DX009 (ip), vehicle: saline 97 % of control | [22] 89 % of control

CC[N+]1=C(C2=NCCc3ccccc32)c2ccccc2CC1
inactive: [23] 104 % of control | [24] 98 % of control | [20] 92 % of control | [25] 100 % of control

N#CN=CN1CCC(Cc2ccccc2)CC1
inactive: [14] 101 % of control | [15] 101 % of control

CC1CCC(C(C)(C)c2ccccc2)CC1OC(=O)/C=C/CC(C)(C)CC=C1C2CCC1N(C(=O)OCC(Cl)(Cl)Cl)N2C(=O)OCC(Cl)(Cl)Cl (stereo unspecified)
inactive: [19] 89 % of control | [8] 89 % of control

COc1cc(NCC(C)(O)CN(CC(C)C)CC(C)C)c2ncccc2c1 (stereo unspecified)
inactive: [23] 106 % of control | [24] 106 % of control | [25] 112 % of control and 97 % of control

COC(=O)C1=NC(=S)N=C(C(=O)OC)C1(C)C(=O)c1ccc(Cl)cc1
inactive: [1] 95 % of control | [2] 99 % of control | [3] 94 % of control

C/C(=C\C(=O)Nc1ccc(S(=O)(=O)F)cc1)c1ccc([N+](=O)[O-])cc1
inactive: [1] 100 % of control | [2] 102 % of control | [3] 90 % of control

c1ccc(CCn2c(-c3ccccn3)nc3ccccc32)nc1
inactive: [19] 105 % of control | [8] 99 % of control | [9] 99 % of control

COc1cccc(/C=N/NC(=O)CNC(=O)Nc2cccc([N+](=O)[O-])c2)c1OC
inactive: [1] 90 % of control | [2] 89 % of control and 96 % of control | [3] 99 % of control and 100 % of control

CCc1ccnc(N=C2N=C(Nc3cc(CC)ccn3)c3ccccc32)c1
inactive: [14] 92 % of control | [15] 97 % of control | [17] 97 % of control

CC1(C)CC(=O)C=C(NCCCCCCCCNC2=CC(=O)CC(C)(C)C2)C1
inactive: [11] 95 % of control | [12] 106 % of control | [13] 100 % of control

O=C(O)CC1Sc2nc3c(n2C1(O)c1ccccc1)CCCC3 (stereo unspecified)
inactive: [11] 109 % of control | [12] 100 % of control | [13] 98 % of control

C=C(C)C(=NC1CCCCC1)NC(C)(C)C
inactive: [19] 99 % of control | [8] 100 % of control | [9] 99 % of control and 102 % of control

COC(=O)Nc1cn2nc(C)sc2n1
inactive: [1] 99 % of control | [2] 94 % of control | [3] 91 % of control

Cc1ccc(NC(=O)Nc2ccccc2C(N)=O)cc1
inactive: [16] 95 % of control | [18] 95 % of control | [21] 90 % of control

Cc1cc(-n2c(C)nc3ccccc3c2=O)on1
inactive: dose: 60.0 mg/kg/injection, schedule: Q01DX005 (ip), vehicle: Klucel (hydroxypropylcellulose) (HPC) 101 % of control | dose: 120.0 mg/kg/injection, schedule: Q01DX005 (ip), vehicle: Klucel (hydroxypropylcellulose) (HPC) 93 % of control | dose: 240.0 mg/kg/injection, schedule: Q01DX005 (ip), vehicle: Klucel (hydroxypropylcellulose) (HPC) 104 % of control

O=C(N/N=C/c1cccc2ccccc12)c1cccnc1
inactive: dose: 6.25 mg/kg/injection, schedule: Q01DX009 (ip), vehicle: saline 100 % of control | dose: 12.5 mg/kg/injection, schedule: Q01DX009 (ip), vehicle: saline 89 % of control | [22] 98 % of control
